Where two headings read alike, the source gives them in different places.
Experiments:
[1] = target: T1, CIB1 and αIIb interaction (GST-CIB1 : F-αIIb peptide) (Homo sapiens, UniProt Q99828); test: FP assay, 384-well format (screen); assay type: binding; parameters: 384-well SCREEN Efficacy (%): concentration or dose not given beside the values; settings: F-αIIb peptide; for 384-well SCREEN Confirm?: YES/NO; for IC50: read-out: 384-well SCREEN IC50
T1 construct: made in house; host or cells: BL-21 plus RIL cells (E. coli)
T1 sequence (Q99828 1-191): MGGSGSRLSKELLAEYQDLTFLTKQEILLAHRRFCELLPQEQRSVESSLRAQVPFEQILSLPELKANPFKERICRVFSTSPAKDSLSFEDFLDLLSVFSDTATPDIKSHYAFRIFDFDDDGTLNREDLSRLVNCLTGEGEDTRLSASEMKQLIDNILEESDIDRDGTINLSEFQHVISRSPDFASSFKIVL

[2] = target: T2, CIB1 and αIIb interaction (CIB1-GST : F-αIIb peptide) (Homo sapiens, UniProt Q99828); test: FP assay, 1536-well qHTS format (primary and confirmatory screen); assay type: binding; settings: for CONFIRMATORY SCREEN Confirm?: YES/NO call; for CONFIRMATORY SCREEN Curve Class: qHTS curve class; for CONFIRMATORY SCREEN Curve Class / Curve Class: negative sign = inhibitory curve; for CONFIRMATORY SCREEN Efficacy (%) / Efficacy (%): negative = inhibition
T2 construct: made in house; host or cells: BL-21 plus RIL cells (E. coli)
T2 sequence (Q99828 1-191): T1 sequence (Q99828 1-191)

[3] = target: T3, GST-CIB1:F-αIIb interaction (Homo sapiens, UniProt Q99828); test: Gel-based (in-gel) binding assay; settings: 1 μM GST-CIB1, 400 nM F-αIIb; for Active in Gel Assay?: 60 μM, 1:2, 4-points; for Inhibited concentration in gel (µM): concentrations tested 60, 30, 15, 7.5
T3 construct: made in house; host or cells: BL-21 plus RIL cells (E. coli)
T3 sequence (Q99828 1-191): T1 sequence (Q99828 1-191)

[4] = target: T4, GST-CIB1 : F-scrambled peptide (Homo sapiens, UniProt Q99828); test: FP scrambled-peptide counter screen, 384-well format; assay type: binding; settings: F-scrambled peptide; for 384-well COUNTERSCREEN Confirm?: *: Curve in opposite direction; for IC50: read-out: 384-well COUNTERSCREEN IC50
T4 construct: made in house; host or cells: BL-21 plus RIL cells (E. coli)
T4 sequence (Q99828 1-191): T1 sequence (Q99828 1-191)

[5] = target: T5, GST-CIB1 : F-αIIb peptide (Homo sapiens, UniProt Q99828); test: FP assay in the presence of glutathione (GSH), thiol reactivity; assay type: binding; settings: for GSH/CIB1 IC50 ratio: ratio of GSH (+) IC50 to GSH (-) IC50; for shift in potency in the presence of GSH: with vs without 10 μM reduced GSH
T5 construct: made in house; host or cells: BL-21 plus RIL cells (E. coli)
T5 sequence (Q99828 1-191): T1 sequence (Q99828 1-191)

[6] = target: T4, GST-CIB1 : F-scrambled peptide; test: FP scrambled-peptide counter screen, 1536-well format; assay type: binding; settings: scrambled-peptide counterscreen; for COUNTERSCREEN Confirm?: YES/NO call; for COUNTERSCREEN Curve Class: qHTS curve class
[7] = confirmatory screen, read-out: CONFIRMATORY SCREEN IC50
[8] = qHTS FP screen hits, Table S2, one class per curve where COUNT > 1
[9] = qHTS FP screen hits, Table S2, read-out: IC50
[10] = FP assay in the presence of glutathione (GSH +), read-out: GSH (+) Assay IC50
[11] = FP assay without glutathione (GSH -), read-out: GSH (-) Assay IC50

SMILES | 384-well SCREEN Efficacy (%) [1] [%] | 384-well SCREEN Confirm? [1] | IC50 [1] [µM] | CONFIRMATORY SCREEN Confirm? ([2]; confirmatory screen) | CONFIRMATORY SCREEN Curve Class ([2]; confirmatory screen) | CONFIRMATORY SCREEN Efficacy (%) ([2]; confirmatory screen) | IC50 [2, 7] [µM] | Efficacy (%) ([2]; qHTS FP screen hits, Table S2) | Curve Class [2, 8] | Active in Gel Assay? [3] | Inhibited concentration in gel (µM) [3] | 384-well COUNTERSCREEN Efficacy (%) [4] [%] | 384-well COUNTERSCREEN Confirm? [4] | IC50 [4] [µM] | IC50 [5, 10] [µM] | IC50 [5, 11] [µM] | GSH/CIB1 IC50 ratio [5] | COUNTERSCREEN Efficacy (%) [6] [%] | COUNTERSCREEN Confirm? [6] | COUNTERSCREEN Curve Class [6] | further results
CC(C)(C)c1ccc(SC2=NS(=O)(=O)c3ccccc32)cc1 [NCGC00189495-01] | 35 | YES | 8.9 | YES | -2.4 | -62 | 31.6 | -38 | -2.2 | YES | 60,30 µM | 25 | YES | > 120 | > 120 | 6.2 | 28.3 | 0 | YES | 4 | IC50 [2, 9]: 39.8 µM; shift in potency in the presence of GSH [5]: right-shift in potency
CC(C)=CCC[C@]1(C)C=Cc2c(O)c3c(c(CC=C(C)C)c2O1)O[C@]12C(=C[C@@H]4CC1C(C)(C)O[C@@]2(C/C=C(/C)C(=O)O)C4=O)C3=O [NCGC00485239-01] | 60 | YES | 3.6 | YES | -1.2 | -54 | 8.9 | -34 | -1.2 | YES | 60,30 µM | 40 | YES | > 120 | 2.4 | 2 | 1.2 | 32 | YES | 1.4 | IC50 [2, 9]: 11.2 µM; GSH Assay Result ([5]; thiol reactivity call: No change / Active): No change; IC50 ([6]; read-out: COUNTERSCREEN IC50): 12.6 µM
CCN(CC)C(=S)SSC(=S)N(CC)CC [NCGC00016000-13, disulfiram, reference compound] | 95 | YES | 1.6 | YES | -1.2 | -72 | 14.1 | – | – | YES | – | 34 | YES | > 120 | 27 | 3.2 | 8.5 | -13 | YES | 4 | IC50 shift in the presence of GSH [5]: 8.5 fold
S=C(SSC(=S)N1CCCCC1)N1CCCCC1 [NCGC00181776-02, dipentamethylenethiuram disulfide] | 80 | YES | 6.3 | YES | -1.4 | -72 | 25.1 | – | – | YES | 60,30 µM | 38 | YES | > 120 | – | – | – | 0 | YES | 4 | Efficacy (%) ([2]; qHTS primary screen hits, Table S2): -64%; Curve Class ([2]; qHTS primary screen hits, Table S2, several classes where COUNT > 1): -1.2; IC50 ([2]; qHTS primary screen hits, Table S2, read-out: IC50): 28.2 µM; shift in potency in the presence of GSH [5]: right-shift in potency

Reference: paper PMC11249646, “Small-Molecule Disruptors of the Interaction between Calcium- and Integrin-Binding Protein 1 and Integrin αIIbβ3 as Novel Antiplatelet Agents” (ACS Pharmacology & Translational Science, 2024)
